# Source: ChEMBL document CHEMBL1687764, “Contribution of BlaA and BlaB beta-lactamases to antibiotic susceptibility of Yersinia enterocolitica biovar 1B” (2010)
# How the values were obtained:
# Type in all cases: functional
# Yersinia enterocolitica [1] = assay: Antimicrobial activity against beta-lactamase B-deficient Yersinia enterocolitica GY5542 after 20 hrs by Etest; conditions: GY5542, 20 h
# Yersinia enterocolitica [2] = assay: Antimicrobial activity against beta-lactamase A and B-deficient Yersinia enterocolitica GY5718 after 20 hrs by Etest; conditions: GY5718, 20 h
# Yersinia enterocolitica [3] = assay: Antimicrobial activity against Yersinia enterocolitica Biovar 1B 8081 after 20 hrs by Etest; conditions: Biovar 1B 8081, 20 h
# Yersinia enterocolitica [4] = assay: Antimicrobial activity against beta-lactamase A-deficient Yersinia enterocolitica GY5717 after 20 hrs by Etest; conditions: GY5717, 20 h
SMILES,MIC (Yersinia enterocolitica [1]),MIC (Yersinia enterocolitica [2]),MIC (Yersinia enterocolitica [3]),MIC (Yersinia enterocolitica [4])
CC1(C)S[C@@H]2[C@H](NC(=O)[C@H](N)c3ccc(O)cc3)C(=O)N2[C@H]1C(=O)O [AMOXICILLIN],24 µg/mL,0.38 µg/mL,24 µg/mL,1.5 µg/mL
CC1(C)S[C@@H]2[C@H](NC(=O)[C@H](N)c3ccccc3)C(=O)N2[C@H]1C(=O)O [AMPICILLIN],4 µg/mL,0.19 µg/mL,4 µg/mL,0.5 µg/mL
CO/N=C(\C(=O)N[C@@H]1C(=O)N2C(C(=O)O)=C(COC(C)=O)CS[C@H]12)c1csc(N)n1 [CEFOTAXIME],0.016 µg/mL,0.012 µg/mL,0.023 µg/mL,0.023 µg/mL
CO/N=C(\C(=O)N[C@@H]1C(=O)N2C(C(=O)O)=C(CSc3nc(=O)c(O)nn3C)CS[C@H]12)c1csc(N)n1 [CEFTRIAXONE],0.016 µg/mL,0.012 µg/mL,0.023 µg/mL,0.016 µg/mL
CO/N=C(\C(=O)N[C@@H]1C(=O)N2C(C(=O)O)=C(COC(N)=O)CS[C@H]12)c1ccco1 [CEFUROXIME],0.75 µg/mL,0.5 µg/mL,0.75 µg/mL,0.5 µg/mL
C[C@@H](O)[C@H]1C(=O)N2C(C(=O)O)=C(SCCNC=N)C[C@H]12 [IMIPENEM ANHYDROUS],0.25 µg/mL,0.25 µg/mL,0.25 µg/mL,0.25 µg/mL
CC1(C)S[C@@H]2[C@H](NC(=O)Cc3ccccc3)C(=O)N2[C@H]1C(=O)O [PENICILLIN G],24 µg/mL,1 µg/mL,24 µg/mL,4 µg/mL
CCN1CCN(C(=O)N[C@@H](C(=O)N[C@@H]2C(=O)N3[C@@H]2SC(C)(C)[C@@H]3C(=O)O)c2ccccc2)C(=O)C1=O [PIPERACILLIN],0.75 µg/mL,0.094 µg/mL,0.75 µg/mL,0.19 µg/mL
